Measurements taken from patent US4357325A, “Methods of controlling Pasteurella infections” (Eli Lilly and Company, priority 1981, dated 1982).
In brackets after ≈: the same amount, converted by molar mass.

What was measured:
P. multocida = experiment: MIC by conventional broth-dilution assay against P. multocida strains (Table II); type: cell-based, P. multocida (avian, bovine and porcine strains); settings: Pasteurella multocida
Protocol: (§1) For example, representative compounds were tested against avian, bovine and porcine Pasteurella species, using the conventional broth-dilution assay. The P. haemolytica strains are bovine strains; the P. multocida strains are avian, bovine and porcine strains.

P. haemolytica = experiment: MIC by conventional broth-dilution assay against P. haemolytica strains (Table II); type: cell-based, P. haemolytica (bovine strains); settings: Mannheimia haemolytica
Protocol: as §1

Pasteurella multocida [1] = experiment: Treatment of Pasteurellosis in mice (Table IV); type: in vivo, mice; bovine isolate of P. multocida; settings: 50 mg/kg × 2 s.c., 1 and 4 h post challenge, 7 days
Protocol: Cirramycin A1 and rosaramicin were evaluated in mice by subcutaneous injection given one and four hours post challenge of the mice with Pasteurella multocida (0.1 ml of a 10^-5 dilution of a tryptose broth culture of a bovine isolate). Mortality was evaluated for the following seven days.

Pasteurella multocida [2] = experiment: Treatment of Pasteurellosis in chicks (Table III); type: in vivo, chicks; avian P. multocida; settings: 1 and 4 h post challenge, 5 days observation, ten chicks per group
Protocol: Representative compounds were evaluated in groups of ten one-day-old chicks at the specified dosage of subcutaneous injection given one and four hours post challenge of the chicks with Pasteurella multocida (0.1 ml of a 20-hour tryptose broth culture of an avian P. multocida given subcutaneously). The compounds (as free bases) were administered in an aqueous propylene glycol solution; non-medicated water and feed were provided to the animals ad libitum.

[3] = 30 mg/kg × 2 s.c., first (or only) experiment
[4] = 30 mg/kg × 2 s.c., second experiment

SMILES | MIC (P. multocida; P. multocida strain 17E) | MIC (P. multocida; P. multocida strain 22A) | MIC (P. multocida; P. multocida strain 40G) | MIC (P. multocida; P. multocida strain 60A) | MIC (P. multocida; P. multocida strain 68C) | MIC (P. haemolytica; P. haemolytica strain 23A) | MIC (P. haemolytica; P. haemolytica strain 23C) | MIC (P. haemolytica; P. haemolytica strain 41D) | No. Died/No. Treated (Pasteurella multocida [1]; Test A, replicate 1) | No. Died/No. Treated (Pasteurella multocida [1]; Test A, replicate 2) | No. Died/No. Treated (Pasteurella multocida [1]; Test B, replicate 1) | No. Died/No. Treated (Pasteurella multocida [1]; Test B, replicate 2) | Deaths in Treated Chicks/Deaths in Infected Nonmedicated Controls (Pasteurella multocida [2]; [3]) | Deaths in Treated Chicks/Deaths in Infected Nonmedicated Controls (Pasteurella multocida [2]; [4]) | Deaths in Treated Chicks/Deaths in Infected Nonmedicated Controls (Pasteurella multocida [2]; 60 mg/kg × 2 s.c.)
CCC1OC(=O)CC(O)C(C)C(OC2OC(C)C(O)C(N(C)C)C2O)C(CC=O)CC(C)C(=O)C=CC2(C)OC2C1C (stereo not shown) [Cirramycin A1, cirramycin A1] | 1.56 µg/mL (≈ 2.61 µM) | 3.12 µg/mL (≈ 5.22 µM) | 3.12 µg/mL (≈ 5.22 µM) | ≤ 0.78 µg/mL | 1.56 µg/mL (≈ 2.61 µM) | 3.12 µg/mL (≈ 5.22 µM) | 3.12 µg/mL (≈ 5.22 µM) | 3.12 µg/mL (≈ 5.22 µM) | 1/5 | 2/5 | 1/5 | 0/5 |  |  | 
CCC1OC(=O)CC(O)C(C)C(OC2OC(C)C(O)C(N(C)C)C2O)C(CC=O)CC(C)C(=O)C=CC(C)=CC1C (stereo not shown) [DOMT, 23-deoxy-5-O-mycaminosyltylonolide] | 1.56 µg/mL (≈ 2.68 µM) | 1.56 µg/mL (≈ 2.68 µM) | 3.12 µg/mL (≈ 5.36 µM) | ≤ 0.78 µg/mL | ≤ 0.78 µg/mL | 3.12 µg/mL (≈ 5.36 µM) | 3.12 µg/mL (≈ 5.36 µM) | 6.75 µg/mL (≈ 11.6 µM) |  |  |  |  | 1/9 | 1/10 | 
CC[C@H]1OC(=O)C[C@@H](O)[C@H](C)[C@@H](O[C@@H]2O[C@H](C)C[C@H](N(C)C)[C@H]2O)[C@@H](CC=O)C[C@@H](C)C(=O)/C=C/[C@]2(C)O[C@H]2[C@@H]1C [Rosaramicin, rosaramicin] | ≤ 0.78 µg/mL | 1.56 µg/mL (≈ 2.68 µM) | 1.56 µg/mL (≈ 2.68 µM) | ≤ 0.78 µg/mL | ≤ 0.78 µg/mL | 1.56 µg/mL (≈ 2.68 µM) | 12.5 µg/mL (≈ 21.5 µM) | 1.56 µg/mL (≈ 2.68 µM) | 0/5 | 0/5 | 0/5 | 3/5 | 5/8 |  | 2/8

More lines, main results first:

MIC (P. multocida; P. multocida strain 17E) | MIC (P. multocida; P. multocida strain 22A) | MIC (P. multocida; P. multocida strain 40G) | MIC (P. multocida; P. multocida strain 60A) | MIC (P. multocida; P. multocida strain 68C) | SMILES | MIC (P. haemolytica; P. haemolytica strain 23A) | MIC (P. haemolytica; P. haemolytica strain 23C) | MIC (P. haemolytica; P. haemolytica strain 41D) | No. Died/No. Treated (Pasteurella multocida [1]; Test A, replicate 1) | No. Died/No. Treated (Pasteurella multocida [1]; Test A, replicate 2) | No. Died/No. Treated (Pasteurella multocida [1]; Test B, replicate 1) | No. Died/No. Treated (Pasteurella multocida [1]; Test B, replicate 2) | Deaths in Treated Chicks/Deaths in Infected Nonmedicated Controls (Pasteurella multocida [2]; [3]) | Deaths in Treated Chicks/Deaths in Infected Nonmedicated Controls (Pasteurella multocida [2]; [4]) | Deaths in Treated Chicks/Deaths in Infected Nonmedicated Controls (Pasteurella multocida [2]; 60 mg/kg × 2 s.c.)
12.5 µg/mL (≈ 16.5 µM) | 12.5 µg/mL (≈ 16.5 µM) | 25 µg/mL (≈ 33 µM) | 6.25 µg/mL (≈ 8.25 µM) | 6.25 µg/mL (≈ 8.25 µM) | CCC1OC(=O)CC(O)C(C)C(OC2OC(C)C(O)C(N(C)C)C2O)C(CC=O)CC(C)C(=O)C=CC(C)=CC1COC1OC(C)C(O)C(O)C1OC (stereo not shown) [Lactenocin, lactenocin] | 25 µg/mL (≈ 33 µM) | 25 µg/mL (≈ 33 µM) | 50 µg/mL (≈ 66 µM) |  |  |  |  | 0/10 | 0/10 | 
25 µg/mL (≈ 32.3 µM) | 25 µg/mL (≈ 32.3 µM) | 50 µg/mL (≈ 64.6 µM) | 25 µg/mL (≈ 32.3 µM) | 6.25 µg/mL (≈ 8.08 µM) | CCC1OC(=O)CC(O)C(C)C(OC2OC(C)C(O)C(N(C)C)C2O)C(CCO)CC(C)C(=O)C=CC(C)=CC1COC1OC(C)C(O)C(OC)C1OC (stereo not shown) [20-Dihydrodesmycosin, 20-dihydrodesmycosin] | 50 µg/mL (≈ 64.6 µM) | 50 µg/mL (≈ 64.6 µM) | 50 µg/mL (≈ 64.6 µM) |  |  |  |  | 0/10 | 0/10 | 
12.5 µg/mL (≈ 16.2 µM) | 12.5 µg/mL (≈ 16.2 µM) | 12.5 µg/mL (≈ 16.2 µM) | 12.5 µg/mL (≈ 16.2 µM) | 12.5 µg/mL (≈ 16.2 µM) | CCC1OC(=O)CC(O)C(C)C(OC2OC(C)C(O)C(N(C)C)C2O)C(CC=O)CC(C)C(O)C=CC(C)=CC1COC1OC(C)C(O)C(OC)C1OC (stereo not shown) [9-Dihydrodesmycosin, 9-dihydrodesmycosin] | 25 µg/mL (≈ 32.3 µM) | 25 µg/mL (≈ 32.3 µM) | 25 µg/mL (≈ 32.3 µM) |  |  |  |  | 3/10 | 0/10 | 
12.5 µg/mL (≈ 16.2 µM) | 12.5 µg/mL (≈ 16.2 µM) | 25 µg/mL (≈ 32.4 µM) | 12.5 µg/mL (≈ 16.2 µM) | 6.25 µg/mL (≈ 8.1 µM) | CCC1OC(=O)CC(O)C(C)C(OC2OC(C)C(O)C(N(C)C)C2O)C(CC=O)CC(C)C(=O)C=CC(C)=CC1COC1OC(C)C(O)C(OC)C1OC (stereo not shown) [Desmycosin, desmycosin] | 25 µg/mL (≈ 32.4 µM) | 25 µg/mL (≈ 32.4 µM) | 25 µg/mL (≈ 32.4 µM) |  |  |  |  | 0/10 | 0/10 | 
